Experimental data taken from ChEMBL document CHEMBL6153110, “Peptide Double-Stapling and Arginine N-Glycosylation Triggered the Development of Therapeutic Antimicrobial Peptides Capable of Killing Drug-Resistant Bacteria in Mice” (J Med Chem, 2025).
In brackets after ≈: the same amount, converted by molar mass. Starred links: 1 amine or outer side, 2 acyl side, 3 side chain; linkers in the order of their positions; H or OH if unused. Positions of bridges follow the written chain, without caps; N, C: chain ends. Non-standard residues stand in square brackets, D forms with d. Residues, ends and D or L forms follow the SMILES beside them. X2 = CC(=O)N[C@@H]1[C@@H](O)[C@H](O)[C@@H](CO)O[C@H]1NC(=N)NCCC[C@H](N[*:1])C(=O)[*:2]; R8 = C=CCCCCCC[C@@](C)(N)C(=O)O; S5 = C=CCCC[C@](C)(N)C(=O)O

Columns and labels:
[1] = test system: Staphylococcus aureus; test: Antimicrobial activity against methicillin-resistant Staphylococcus aureus ATCC 43300 assessed as growth inhibition measured after 8 hrs incubation by standard broth dilution assay; assay type: functional
[2] = test system: Pseudomonas aeruginosa; test: Antimicrobial activity against Pseudomonas aeruginosa ATCC 27853 assessed as growth inhibition measured after 8 hrs incubation by standard broth dilution assay; assay type: functional
[3] = test system: Klebsiella pneumoniae; test: Antimicrobial activity against Klebsiella pneumoniae ATCC 13883 assessed as growth inhibition measured after 8 hrs incubation by standard broth dilution assay; assay type: functional
[4] = Hemolytic activity in BALB/c mouse red blood cells assessed as hemolysis incubated for 1 hrs; assay type: toxicity, cell-based, Erythrocyte; settings: read-out: HD50
[5] = test system: Streptococcus pneumoniae; test: Antimicrobial activity against Streptococcus pneumoniae ATCC 49619 assessed as growth inhibition measured after 8 hrs incubation by standard broth dilution assay; assay type: functional

| SMILES | MIC [1] [µg/mL] | MIC [2] [µg/mL] | MIC [3] [µg/mL] | HC50 at 1 h [4] [µg/mL] | MIC [5] [µg/mL] |
| --- | --- | --- | --- | --- | --- |
| CC(=O)N[C@@H](CC(C)C)C(=O)N[C@@H](CCCCN)C(=O)N[C@@H](CCCNC(=N)N)C(=O)N[C@H](C(=O)N[C@@H](Cc1c[nH]c2ccccc12)C(=O)N[C@@H](CCCCN)C(=O)N[C@@H](CCCNC(=N)N)C(=O)N[C@H](C(=O)N[C@@H](Cc1ccccc1)C(=O)N[C@@H](CCCCN)C(=O)N[C@@H](CC(C)C)C(=O)N[C@@H](CC(C)C)C(=O)N[C@@H](CCCCN)C(=O)N[C@@]1(C)CCC/C=C\CCC[C@@](C)(C(=O)N[C@@H](CCCCN)C(=O)N[C@@H](CCCCN)C(=O)N[C@@H](CCCCN)C(=O)N2CCC[C@H]2C(=O)N[C@H](C(=O)N[C@@H](CCCNC(=N)N)C(N)=O)C(C)C)NC(=O)[C@H](CCCNC(=N)N)NC(=O)[C@H](Cc2c[nH]c3ccccc23)NC(=O)[C@H](Cc2ccc(O)cc2)NC1=O)C(C)C)C(C)C (Ac-LKRVWKRVFKLLK[S5]YWR[S5]KKKPVR-NH2; staple (Z) 14-18) | 10.1 (≈ 3.11 µM) | 5 (≈ 1.54 µM) | 19 (≈ 5.85 µM) | 10.8 | 4.7 (≈ 1.45 µM) |
| CC(=O)N[C@@H](CC(C)C)C(=O)N[C@@H](CCCCN)C(=O)N[C@@H](CCCNC(=N)N)C(=O)N[C@H](C(=O)N[C@@H](Cc1c[nH]c2ccccc12)C(=O)N[C@@H](CCCCN)C(=O)N[C@@H](CCCNC(=N)N)C(=O)N[C@H](C(=O)N[C@@H](Cc1ccccc1)C(=O)N[C@@H](CCCCN)C(=O)N[C@@H](CC(C)C)C(=O)N[C@@H](CC(C)C)C(=O)N[C@@H](CCCCN)C(=O)N[C@@]1(C)CCC/C=C\CCC[C@@](C)(C(=O)N[C@@H](CC(C)C)C(=O)N[C@@H](CCCCN)C(=O)N[C@@H](CCCCN)C(=O)N2CCC[C@H]2C(=O)N[C@@H](CCCCN)C(=O)N[C@@H](CCCNC(=N)N)C(N)=O)NC(=O)[C@H](CCCNC(=N)N)NC(=O)[C@H](Cc2c[nH]c3ccccc23)NC(=O)[C@H](Cc2ccc(O)cc2)NC1=O)C(C)C)C(C)C (Ac-LKRVWKRVFKLLK[S5]YWR[S5]LKKPKR-NH2; staple (Z) 14-18) | 4.9 (≈ 1.5 µM) | 5 (≈ 1.53 µM) | 19.2 (≈ 5.89 µM) | 8.9 | 4.7 (≈ 1.44 µM) |
| CC(=O)N[C@@H](CCCCN)C(=O)N[C@@H](CCCCN)C(=O)N[C@@H](CCCNC(=N)N)C(=O)N[C@@]1(C)CCC/C=C\CCC[C@@](C)(C(=O)N[C@@H](Cc2ccccc2)C(=O)N[C@@H](CCCCN)C(=O)N[C@@H](CC(C)C)C(=O)N[C@@H](CC(C)C)C(=O)N[C@@H](CCCCN)C(=O)N[C@@]2(C)CCC/C=C\CCC[C@@](C)(C(=O)N[C@@H](CC(C)C)C(=O)N[C@@H](CCCCN)C(=O)N[C@@H](CCCCN)C(=O)N3CCC[C@H]3C(=O)N[C@H](C(=O)N[C@@H](CCCNC(=N)N)C(N)=O)C(C)C)NC(=O)[C@H](CCCNC(=N)N)NC(=O)[C@H](Cc3c[nH]c4ccccc34)NC(=O)[C@H](Cc3ccc(O)cc3)NC2=O)NC(=O)[C@H](CCCNC(=N)N)NC(=O)[C@H](CCCCN)NC(=O)[C@H](Cc2c[nH]c3ccccc23)NC1=O (Ac-KKR[S5]WKR[S5]FKLLK[S5]YWR[S5]LKKPVR-NH2; staple (Z) 4-8, 14-18) | 4.9 (≈ 1.48 µM) | 5 (≈ 1.52 µM) | 4.9 (≈ 1.48 µM) | 10.5 | 4.7 (≈ 1.42 µM) |
| CC(=O)N[C@@H](CCCCN)C(=O)N[C@@H](CCCCN)C(=O)N[C@@H](CCCNC(=N)N)C(=O)N[C@@H](CCCCN)C(=O)N[C@@H](Cc1c[nH]c2ccccc12)C(=O)N[C@@H](CCCCN)C(=O)N[C@@H](CCCNC(=N)N)C(=O)N[C@@]1(C)CCC/C=C\CCC[C@@](C)(C(=O)N[C@@H](CCCCN)C(=O)N[C@@]2(C)CCC/C=C\CCC[C@@](C)(C(=O)N[C@@H](CC(C)C)C(=O)N[C@@H](CCCCN)C(=O)N[C@@H](CCCCN)C(=O)N3CCC[C@H]3C(=O)N[C@H](C(=O)N[C@@H](CCCNC(=N)N)C(N)=O)C(C)C)NC(=O)[C@H](CCCNC(=N)N)NC(=O)[C@H](Cc3c[nH]c4ccccc34)NC(=O)[C@H](Cc3ccc(O)cc3)NC2=O)NC(=O)[C@H](CC(C)C)NC(=O)[C@H](CCCCN)NC(=O)[C@H](Cc2ccccc2)NC1=O (Ac-KKRKWKR[S5]FKL[S5]K[S5]YWR[S5]LKKPVR-NH2; staple (Z) 8-12, 14-18) | 2.5 (≈ 0.754 µM) | 2.6 (≈ 0.784 µM) | 10.1 (≈ 3.05 µM) | 26.5 | 2.4 (≈ 0.724 µM) |
| CC(=O)N[C@@H]1[C@@H](O)[C@H](O)[C@@H](CO)O[C@H]1NC(=N)NCCC[C@H](NC(=O)[C@@H](NC(=O)[C@@H]1CCCN1C(=O)[C@H](CCCCN)NC(=O)[C@H](CCCCN)NC(=O)[C@H](CC(C)C)NC(=O)[C@H](CCC(N)=O)NC(=O)[C@H](CCCNC(=N)N)NC(=O)[C@H](Cc1c[nH]c2ccccc12)NC(=O)[C@H](Cc1ccc(O)cc1)NC(=O)[C@H](CCCNC(=N)N)NC(=O)[C@H](CCCCN)NC(=O)[C@H](CC(C)C)NC(=O)[C@H](CC(C)C)NC(=O)[C@H](CCCCN)NC(=O)[C@H](Cc1ccccc1)NC(=O)[C@@H](NC(=O)[C@H](CCCNC(=N)N)NC(=O)[C@H](CCCCN)NC(=O)[C@H](Cc1c[nH]c2ccccc12)NC(=O)[C@@H](NC(=O)[C@H](CCCNC(=N)N)NC(=O)[C@H](CCCCN)NC(=O)[C@H](CC(C)C)NC(C)=O)C(C)C)C(C)C)C(C)C)C(N)=O (Ac-LKRVWKRVFKLLKRYWRQLKKPV[X2]-NH2) | 4.9 (≈ 1.41 µM) | 5 (≈ 1.44 µM) | 38 (≈ 10.9 µM) | 35.8 | 4.7 (≈ 1.35 µM) |
| CC(=O)N[C@@H](CC(C)C)C(=O)N[C@@H](CCCCN)C(=O)N[C@@H](CCCNC(=N)N)C(=O)N[C@H](C(=O)N[C@@H](Cc1c[nH]c2ccccc12)C(=O)N[C@@H](CCCCN)C(=O)N[C@@H](CCCNC(=N)N)C(=O)N[C@H](C(=O)N[C@@H](Cc1ccccc1)C(=O)N[C@@H](CCCCN)C(=O)N[C@@H](CCCCN)C(=O)N[C@@H](CC(C)C)C(=O)N[C@@H](CCCCN)C(=O)N[C@@]1(C)CCC/C=C\CCC[C@@](C)(C(=O)N[C@@H](CC(C)C)C(=O)N[C@@H](CCCCN)C(=O)N[C@@H](CCCCN)C(=O)N2CCC[C@H]2C(=O)N[C@H](C(=O)N[C@@H](CCCNC(=N)N)C(N)=O)C(C)C)NC(=O)[C@H](CCCNC(=N)N)NC(=O)[C@H](Cc2c[nH]c3ccccc23)NC(=O)[C@H](Cc2ccc(O)cc2)NC1=O)C(C)C)C(C)C (Ac-LKRVWKRVFKKLK[S5]YWR[S5]LKKPVR-NH2; staple (Z) 14-18) | 10.1 (≈ 3.11 µM) | 5 (≈ 1.54 µM) | 38 (≈ 11.7 µM) | 35.2 | 4.7 (≈ 1.45 µM) |
| CC(=O)N[C@@H](CCCCN)C(=O)N[C@@H](CCCCN)C(=O)N[C@@H](CCCNC(=N)N)C(=O)N[C@H](C(=O)N[C@@]1(C)CCC/C=C\CCC[C@@](C)(C(=O)N[C@@H](CCCCN)C(=O)N[C@@H](CC(C)C)C(=O)N[C@@H](CC(C)C)C(=O)N[C@@H](CCCCN)C(=O)N[C@@]2(C)CCC/C=C\CCC[C@@](C)(C(=O)N[C@@H](CC(C)C)C(=O)N[C@@H](CCCCN)C(=O)N[C@@H](CCCCN)C(=O)N3CCC[C@H]3C(=O)N[C@H](C(=O)N[C@@H](CCCNC(=N)N)C(N)=O)C(C)C)NC(=O)[C@H](CCCNC(=N)N)NC(=O)[C@H](Cc3c[nH]c4ccccc34)NC(=O)[C@H](Cc3ccc(O)cc3)NC2=O)NC(=O)[C@H](C(C)C)NC(=O)[C@H](CCCNC(=N)N)NC(=O)[C@H](CCCCN)NC1=O)C(C)C (Ac-KKRV[S5]KRV[S5]KLLK[S5]YWR[S5]LKKPVR-NH2; staple (Z) 5-9, 14-18) | 4.9 (≈ 1.55 µM) | 5 (≈ 1.58 µM) | 4.9 (≈ 1.55 µM) | 13.2 | 4.7 (≈ 1.48 µM) |
| CC(=O)N[C@@H](CCCCN)C(=O)N[C@@H](CCCCN)C(=O)N[C@@H](CCCNC(=N)N)C(=O)N[C@H](C(=O)N[C@@H](CCCCN)C(=O)N[C@@H](CCCCN)C(=O)N[C@@H](CCCNC(=N)N)C(=O)N[C@@]1(C)CCC/C=C\CCC[C@@](C)(C(=O)N[C@@H](CCCCN)C(=O)N[C@@]2(C)CCC/C=C\CCC[C@@](C)(C(=O)N[C@@H](CC(C)C)C(=O)N[C@@H](CCCCN)C(=O)N[C@@H](CCCCN)C(=O)N3CCC[C@H]3C(=O)N[C@H](C(=O)N[C@@H](CCCNC(=N)N)C(N)=O)C(C)C)NC(=O)[C@H](CCCNC(=N)N)NC(=O)[C@H](Cc3c[nH]c4ccccc34)NC(=O)[C@H](Cc3ccc(O)cc3)NC2=O)NC(=O)[C@H](CC(C)C)NC(=O)[C@H](CCCCN)NC(=O)[C@H](Cc2ccccc2)NC1=O)C(C)C (Ac-KKRVKKR[S5]FKL[S5]K[S5]YWR[S5]LKKPVR-NH2; staple (Z) 8-12, 14-18) | 2.5 (≈ 0.774 µM) | 2.6 (≈ 0.805 µM) | 2.5 (≈ 0.774 µM) | 56.3 | 2.4 (≈ 0.743 µM) |
| CC(=O)N[C@@H](CC(C)C)C(=O)N[C@@H](CCCCN)C(=O)N[C@@H](CCCNC(=N)N)C(=O)N[C@H](C(=O)N[C@@]1(C)CCC/C=C\CCC[C@@](C)(C(=O)N[C@@H](CCCCN)C(=O)N[C@@H](CC(C)C)C(=O)N[C@@H](CC(C)C)C(=O)N[C@@H](CCCCN)C(=O)N[C@@H](CCCNC(=N)N)C(=O)N[C@@H](Cc2ccc(O)cc2)C(=O)N[C@@H](Cc2c[nH]c3ccccc23)C(=O)N[C@@H](CCCNC(=N)N)C(=O)N[C@@H](CCC(N)=O)C(=O)N[C@@H](CC(C)C)C(=O)N[C@@H](CCCCN)C(=O)N[C@@H](CCCCN)C(=O)N2CCC[C@H]2C(=O)N[C@H](C(=O)N[C@@H](CCCNC(=N)N)C(N)=O)C(C)C)NC(=O)[C@H](C(C)C)NC(=O)[C@H](CCCNC(=N)N)NC(=O)[C@H](CCCCN)NC1=O)C(C)C (Ac-LKRV[S5]KRV[S5]KLLKRYWRQLKKPVR-NH2; staple (Z) 5-9) | 2.5 (≈ 0.785 µM) | 2.6 (≈ 0.817 µM) | 38 (≈ 11.9 µM) |  | 37.7 (≈ 11.8 µM) |
| CC(=O)N[C@@H](CC(C)C)C(=O)N[C@@H](CCCCN)C(=O)N[C@@H](CCCNC(=N)N)C(=O)N[C@H](C(=O)N[C@@H](Cc1c[nH]c2ccccc12)C(=O)N[C@@H](CCCCN)C(=O)N[C@@H](CCCNC(=N)N)C(=O)N[C@H](C(=O)N[C@@H](Cc1ccccc1)C(=O)N[C@@H](CCCCN)C(=O)N[C@]1(C)CCCCCC/C=C\CCC[C@@](C)(C(=O)N[C@@H](CC(C)C)C(=O)N[C@@H](CCCCN)C(=O)N[C@@H](CCCCN)C(=O)N2CCC[C@H]2C(=O)N[C@H](C(=O)N[C@@H](CCCNC(=N)N)C(N)=O)C(C)C)NC(=O)[C@H](CCCNC(=N)N)NC(=O)[C@H](Cc2c[nH]c3ccccc23)NC(=O)[C@H](Cc2ccc(O)cc2)NC(=O)[C@H](CCCNC(=N)N)NC(=O)[C@H](CCCCN)NC(=O)[C@H](CC(C)C)NC1=O)C(C)C)C(C)C (Ac-LKRVWKRVFK[R8]LKRYWR[S5]LKKPVR-NH2; staple (Z) 11-18) | 9.7 (≈ 2.92 µM) | 5 (≈ 1.51 µM) | 4.9 (≈ 1.48 µM) |  | 37.7 (≈ 11.4 µM) |
